According to article PMC12339328, “Therapeutic effect and mechanism of gigantol on hyperuricemia” (Frontiers in Endocrinology, 2025):
Values joined by “and” are separate entries in the source; they are usually repeats but may differ in a detail not shown here. Equal entries are not always repeated. Where two headings read alike, the source gives them in different places.

Experiments:
GLUT9 [1] = experiment: GLUT9 protein expression in HK-2 cells (Western blot); conditions: for GLUT (GLUT9) / β (reference protein) ratio / GLUT (GLUT9) protein expression, band value: HK-2, replicates 1-3; for GLUT9 protein expression in HK-2 cells: HUA cell model, gigantol 25, 50, 100 µmol/L, especially high-dose (p < 0.001), vs model
NLRP3 [2] = experiment: NLRP3 protein expression in kidney of HUA mice (Western blot); type: in vivo; conditions: gigantol high-dose group (20 mg/kg), vs model group, p < 0.01
HK-2 cells = experiment: UA level in HK-2 HUA cell model; type: cell-based, human; conditions: adenosine + XOD induced; gigantol 25, 50, 100 μmol/L; p < 0.001
GLUT9 [3] = experiment: GLUT9 protein expression in kidney of HUA mice (Western blot); type: in vivo; conditions: gigantol, dose-dependent, vs model group
AML12 cells = experiment: UA level in AML12 HUA cell model; type: cell-based, mouse; conditions: adenosine + XOD induced; gigantol 25, 50, 100 μmol/L; p < 0.001
caspase-1 = experiment: Caspase-1 protein expression in kidney of HUA mice (Western blot); type: in vivo; conditions: gigantol high-dose group (20 mg/kg), vs model group, p < 0.001
[4] = system: renal tissue in mice with HUA; experiment: Renal histopathology of HUA mice (HE staining); type: in vivo; conditions: 200×, gigantol-treated groups
Excerpt: (§1) The kidney and liver tissues were fixed with 4% paraformaldehyde solution. After paraffin embedding and sectioning, the paraffin on the slide was removed with xylene and soaked in different concentrations of ethanol and deionized water. The liver and kidney tissues were stained according to the HE staining procedure, and then the morphology of the kidney tissues and liver tissues was observed under the microscope.

NLRP3 [5] = experiment: NLRP3 content in HK-2 HUA cell model (ELISA); type: cell-based, human; conditions: gigantol 25, 50, 100 µmol/L, dose-dependent
Procedure: (§2) HK-2 cells were treated as described above. The supernatant of the medium was collected, and the levels of proinflammatory cytokines (TNF-α, IL-6, and IL-1β) and the NLRP3 inflammasome component in the supernatant were detected using commercially available ELISA kits according to the manufacturers’ protocols.

IL-1β = IL-1β content in serum and kidney of HUA mice (ELISA); type: in vivo; conditions: gigantol low, medium, high dose intragastric, vs model group
Procedure: (§3) Blood obtained from mice in each group was centrifuged at 3,000 r/min for 15 min in a low-temperature high-speed centrifuge. Then, the serum was separated, and the levels of UA, CRE, and BUN in the serum were measured by the kits. The levels of TNF-α, IL-1β, IL-6, and NLRP3 in serum were detected by ELISA kits. Liver and kidney tissues were homogenized by adding ice-cold saline, and homogenates were centrifuged at 12,000 r/min for 10 min. XOD activity in the supernatant of the liver tissues was measured, and the levels of TNF-α, IL-1β, IL-6, and NLRP3 in the supernatant of the kidney tissues were measures by ELISA kits.

OAT1 = OAT1 protein expression in kidney of HUA mice (Western blot); conditions: gigantol medium-dose and high-dose groups (10, 20 mg/kg), vs model group, p < 0.01
OAT3 = OAT3 protein expression in HK-2 cells (Western blot); conditions: for OAT3 / β (reference protein) ratio / OAT3 protein expression, band value: HK-2, replicates 1-3
ASC [6] = experiment: ASC protein expression in HK-2 cells (Western blot); conditions: for asc / β (reference protein) ratio / asc protein expression, band value: HK-2, replicates 1-3; for ASC protein level in HK-2 cells: HUA cell model
ASC [7] = experiment: ASC protein expression in kidney of HUA mice (Western blot); type: in vivo; conditions: gigantol high-dose group (20 mg/kg), vs model group, p < 0.001
[8] = rat, in vivo
Procedure: Whole blood was taken into heparinized tubes at predefined time points (2, 5, 10, 20, and 30 min, and 1, 2, 4, 6, 8, and 12 h) after administration, and plasma was separated by centrifugation and stored at −20°C until testing. […] Whole blood was taken into heparinized tubes at predefined time points (2, 5, 10, 20, and 30 min, and 1, 2, 4, 6, 8, and 12 h) after administration, and plasma was separated by centrifugation and stored at −20°C until testing. […] Pharmacokinetic parameters were calculated by using the pharmacokinetics software WinNonlin 8.1.

[9] = system: liver tissue in mice with HUA; experiment: Liver histopathology of HUA mice (HE staining); type: in vivo; conditions: 200×, gigantol 5, 10, 20 mg/kg
Excerpt: as §1

TNF-α = TNF-α level in HK-2 HUA cell model (ELISA); type: cell-based, human; conditions: adenosine and XOD induction; gigantol 25, 50, 100 μmol/L
Procedure: as §2

[10] = system: mice with HUA induced by potassium oxonate; experiment: Serum and urine UA, CRE and BUN in HUA mice; type: in vivo
Procedure: On day 6, the mice were transferred to a metabolic cage, given free water and diet, and 24-h urine samples were collected for the determination of UA, CRE, and BUN levels. One hour after the last administration, 2 mL of blood was taken through eyeball extraction, and the mice were killed by euthanasia. Mice were dissected and the livers and kidneys were removed.
as §3

IL-6 [11] = experiment: IL-6 level in HK-2 HUA cell model (ELISA); type: cell-based, human; conditions: adenosine and XOD induction; gigantol 25, 50, 100 μmol/L
Procedure: as §2

XOD [12] = conditions: HUA cell model; gigantol 25, 50, 100 μmol/L, dose-dependent; vs model; p < 0.05, p < 0.001, p < 0.001
XOD [13] = target: T1, XOD (Mus musculus, UniProt Q00519); type: in vivo; conditions: HUA mice, vs model group
T1 construct: XOD activity in the supernatant of the liver tissues was measured; from tissue; host or cells: liver of male KM mice (hyperuricemia model, potassium oxonate)

XOD [14] = conditions: HUA mice; each dose of gigantol (5, 10, 20 mg/kg); vs model group; p < 0.01, p < 0.01, p < 0.001
IL-6 [15] = experiment: IL-6 level in serum and kidney of HUA mice (ELISA); type: in vivo; conditions: HUA mice treated with gigantol; vs model group; p < 0.01
Procedure: as §3

[16] = 24-h urine, after gigantol treatment
[17] = gigantol 5, 10, 20 mg/kg gavage 7 days, vs model group, high dose p < 0.001

T1 sequence (Q00519 whole entry): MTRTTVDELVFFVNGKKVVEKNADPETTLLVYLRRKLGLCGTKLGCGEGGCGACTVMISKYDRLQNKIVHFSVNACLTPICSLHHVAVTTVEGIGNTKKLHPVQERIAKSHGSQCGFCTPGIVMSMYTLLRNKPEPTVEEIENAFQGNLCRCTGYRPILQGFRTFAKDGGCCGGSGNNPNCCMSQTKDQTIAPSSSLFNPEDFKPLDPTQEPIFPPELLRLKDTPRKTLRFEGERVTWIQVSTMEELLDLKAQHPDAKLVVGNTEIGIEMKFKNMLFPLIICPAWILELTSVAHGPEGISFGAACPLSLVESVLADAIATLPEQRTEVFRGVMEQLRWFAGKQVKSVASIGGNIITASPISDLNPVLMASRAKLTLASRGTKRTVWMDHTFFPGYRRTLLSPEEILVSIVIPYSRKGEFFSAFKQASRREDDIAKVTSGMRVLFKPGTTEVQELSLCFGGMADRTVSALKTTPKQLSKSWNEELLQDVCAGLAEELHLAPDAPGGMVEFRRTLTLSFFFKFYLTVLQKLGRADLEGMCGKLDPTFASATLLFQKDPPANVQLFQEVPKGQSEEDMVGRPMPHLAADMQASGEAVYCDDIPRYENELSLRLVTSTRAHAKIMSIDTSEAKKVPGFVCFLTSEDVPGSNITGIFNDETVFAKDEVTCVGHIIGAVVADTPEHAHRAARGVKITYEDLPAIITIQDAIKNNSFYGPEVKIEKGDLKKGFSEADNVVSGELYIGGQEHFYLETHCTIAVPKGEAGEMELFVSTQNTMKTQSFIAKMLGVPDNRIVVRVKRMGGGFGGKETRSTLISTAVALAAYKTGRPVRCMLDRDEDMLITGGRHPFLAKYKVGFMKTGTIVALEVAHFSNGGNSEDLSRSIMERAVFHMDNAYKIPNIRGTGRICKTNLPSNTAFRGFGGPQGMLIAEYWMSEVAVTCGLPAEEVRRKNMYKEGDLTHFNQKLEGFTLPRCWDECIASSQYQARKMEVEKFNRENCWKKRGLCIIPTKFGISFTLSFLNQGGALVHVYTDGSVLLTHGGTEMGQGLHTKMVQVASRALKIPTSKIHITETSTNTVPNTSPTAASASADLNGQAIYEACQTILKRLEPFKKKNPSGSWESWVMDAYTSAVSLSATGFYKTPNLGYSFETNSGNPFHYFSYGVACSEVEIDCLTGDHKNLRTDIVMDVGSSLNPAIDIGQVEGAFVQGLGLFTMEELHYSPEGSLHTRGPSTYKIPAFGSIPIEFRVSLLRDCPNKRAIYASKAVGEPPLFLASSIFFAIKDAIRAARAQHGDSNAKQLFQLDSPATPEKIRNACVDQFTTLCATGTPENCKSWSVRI

5-[2-(3-hydroxy-5-methoxyphenyl) ethyl]-2-methoxyphenol [gigantol]
GLUT (GLUT9) / β (reference protein) ratio (GLUT9 [1]; 中 = gigantol 50 µmol/L): 0.824 and 0.7786 and 0.7289 | GLUT (GLUT9) protein expression, band value (GLUT9 [1]; 中 = gigantol 50 µmol/L): 143.264 and 144.598 and 138.372 | GLUT (GLUT9) / β (reference protein) ratio (GLUT9 [1]; 低 = gigantol 25 µmol/L): 0.9479 and 0.8166 and 0.8642 | GLUT (GLUT9) protein expression, band value (GLUT9 [1]; 低 = gigantol 25 µmol/L): 156.942 and 153.38 and 155.361 | GLUT (GLUT9) / β (reference protein) ratio (GLUT9 [1]; 高 = gigantol 100 µmol/L): 0.7095 and 0.5035 and 0.629 | GLUT (GLUT9) protein expression, band value (GLUT9 [1]; 高 = gigantol 100 µmol/L): 132.094 and 98.555 and 122.472 | GLUT9 protein expression in HK-2 cells (GLUT9 [1]): significantly decreased | GLUT9 protein expression in HK-2 cells (GLUT9 [1]; listed as Gigantol): decreased | NLRP3 protein expression in kidney (NLRP3 [2]): decreased significantly | UA level in HK-2 cells (HK-2 cells): suppressed | GLUT9 protein expression in kidney (GLUT9 [3]): significantly reduced | UA level in AML12 cells (AML12 cells): suppressed | caspase-1 protein expression in kidney (caspase-1): decreased significantly | renal histopathology: glomerulus injury [4]: a trend of recovery in the injury of the glomerulus | renal histopathology: urate crystals [4]: no urate crystals in the renal tubules | NLRP3 in HK-2 cells (NLRP3 [5]): significantly reduced | IL-1β level in kidney (IL-1β): decreased | IL-1β level in serum (IL-1β): decreased | OAT1 protein expression in kidney (OAT1): increased | OAT3 / β (reference protein) ratio (OAT3; 中 = gigantol 50 µmol/L): 1.0464 and 0.924 and 0.8748 | OAT3 protein expression, band value (OAT3; 中 = gigantol 50 µmol/L): 181.929 and 171.604 and 166.063 | OAT3 / β (reference protein) ratio (OAT3; 低 = gigantol 25 µmol/L): 0.8292 and 0.8811 and 0.9428 | OAT3 protein expression, band value (OAT3; 低 = gigantol 25 µmol/L): 137.293 and 165.504 and 169.481 | OAT3 / β (reference protein) ratio (OAT3; 高 = gigantol 100 µmol/L): 0.9571 and 0.9652 and 1.021 | OAT3 protein expression, band value (OAT3; 高 = gigantol 100 µmol/L): 178.19 and 188.909 and 198.88 | OAT3 protein level in HK-2 cells (OAT3; HUA cell model, 50 and 100 µmol/L, vs model group): significantly increased | OAT3 protein expression in HK-2 cells (OAT3; HUA cell model, gigantol 25, 50, 100 µmol/L, dose-dependent): increase | asc / β (reference protein) ratio (ASC [6]; 中 = gigantol 50 µmol/L): 0.7729 and 0.7908 and 0.8759 | asc protein expression, band value (ASC [6]; 中 = gigantol 50 µmol/L): 134.385 and 146.868 and 166.261 | asc / β (reference protein) ratio (ASC [6]; 低 = gigantol 25 µmol/L): 0.9783 and 1.053 and 1.058 | asc protein expression, band value (ASC [6]; 低 = gigantol 25 µmol/L): 161.976 and 197.704 and 190.261 | asc / β (reference protein) ratio (ASC [6]; 高 = gigantol 100 µmol/L): 0.7353 and 0.6853 and 0.7512 | asc protein expression, band value (ASC [6]; 高 = gigantol 100 µmol/L): 136.893 and 134.134 and 146.281 | ASC protein level in HK-2 cells (ASC [6]; 50 and 100 µmol/L gigantol, vs model group): significantly reduced | ASC protein level in HK-2 cells (ASC [6]; gigantol intervention, especially high-dose group (p < 0.001), vs model): decreased significantly | ASC protein expression in kidney (ASC [7]): decreased significantly | F [8]: 16.82% | time of second peak of blood concentration [8]: approximately 2 h | liver histopathology [9]: the atrophy of liver cells significantly improved | TNF-α level in HK-2 cells (TNF-α): tended to decrease dose-dependently | urine BUN level [10, 16]: increased | urine CRE level [10, 16]: increased | urine UA content ([10]; 24-h urine, gigantol 5, 10, 20 mg/kg gavage, vs model group, p < 0.01): increased significantly in a dose-dependent manner | serum BUN level [10, 17]: significantly reduced | serum CRE level [10, 17]: significantly reduced | serum UA level [10, 17]: significantly reduced | IL-6 level in HK-2 cells (IL-6 [11]): tended to decrease dose-dependently | XOD activity in AML12 cells (XOD [12]): downregulated | XOD activity in mice liver (XOD [13]; gigantol high dose (20 mg/kg), p < 0.001): inhibited | XOD activity in mice liver (XOD [13]; gigantol low and middle doses (5, 10 mg/kg), p > 0.05): no significant difference | XOD protein expression in liver (XOD [14]): significantly decreased | renal IL-6 level (IL-6 [15]): significantly lower | serum IL-6 level (IL-6 [15]): significantly lower
